According to ChEMBL document CHEMBL4507262, “Data for DCP probe A-1596586” (2021):

Legend:
[1] = target: Cyclin-dependent kinase 5 (Homo sapiens) (UniProt Q00535); conditions: Compound concentration 1000.0 nM
[2] = target: T1, Muscarinic acetylcholine receptor M4 (Homo sapiens) (UniProt P08173); test: M4 (h) Eurofins-Cerep binding assay; set-up: ligand concentration 0.2 nM; conditions: filed as antagonist, Compound concentration 10.0 uM
T1 sequence (whole entry): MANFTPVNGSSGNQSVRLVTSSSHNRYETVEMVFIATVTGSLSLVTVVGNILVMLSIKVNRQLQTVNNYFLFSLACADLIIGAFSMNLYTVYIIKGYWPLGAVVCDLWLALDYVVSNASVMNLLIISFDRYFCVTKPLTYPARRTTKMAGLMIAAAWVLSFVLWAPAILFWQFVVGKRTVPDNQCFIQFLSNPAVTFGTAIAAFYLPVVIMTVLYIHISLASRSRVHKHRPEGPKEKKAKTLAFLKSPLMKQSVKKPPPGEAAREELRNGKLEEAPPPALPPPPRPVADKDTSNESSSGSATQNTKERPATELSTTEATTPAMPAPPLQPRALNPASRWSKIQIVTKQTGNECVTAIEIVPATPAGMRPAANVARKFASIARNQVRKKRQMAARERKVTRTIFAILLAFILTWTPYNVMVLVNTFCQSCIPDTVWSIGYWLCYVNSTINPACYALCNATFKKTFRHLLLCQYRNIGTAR

[3] = target: Testis-specific serine/threonine-protein kinase 3 (Homo sapiens) (UniProt Q96PN8); conditions: Compound concentration 1000.0 nM
[4] = target: Cyclin-dependent kinase 15 (Homo sapiens) (UniProt Q96Q40); conditions: Compound concentration 1000.0 nM
[5] = system: Epidermal growth factor receptor (Homo sapiens), P00533 [UNDEFINED MUTATION]; conditions: Compound concentration 1000.0 nM
[6] = target: Tyrosine-protein kinase CSK (Homo sapiens) (UniProt P41240); conditions: Compound concentration 1000.0 nM
[7] = target: Ephrin type-B receptor 1 (Homo sapiens) (UniProt P54762); conditions: Compound concentration 1000.0 nM
[8] = target: Rhodopsin kinase GRK7 (Homo sapiens) (UniProt Q8WTQ7); conditions: Compound concentration 1000.0 nM
[9] = target: MAP kinase-activated protein kinase 5 (Homo sapiens) (UniProt Q8IW41); conditions: Compound concentration 1000.0 nM
[10] = target: Vascular endothelial growth factor receptor 1 (Homo sapiens) (UniProt P17948); conditions: Compound concentration 1000.0 nM
[11] = target: Mitogen-activated protein kinase 12 (Homo sapiens) (UniProt P53778); conditions: Compound concentration 1000.0 nM
[12] = target: Adenosine receptor A3 (Homo sapiens) (UniProt P0DMS8); test: A3 (h) Eurofins-Cerep binding assay; set-up: ligand concentration 0.15 nM; conditions: filed as agonist, Compound concentration 10.0 uM
[13] = system: Receptor-type tyrosine-protein kinase FLT3 (Homo sapiens), P36888 [K663Q]; conditions: Compound concentration 1000.0 nM
[14] = target: Serine/threonine-protein kinase/endoribonuclease IRE1 (Homo sapiens) (UniProt O75460); conditions: Compound concentration 1000.0 nM
[15] = target: Serine/threonine-protein kinase 38-like (Homo sapiens) (UniProt Q9Y2H1); conditions: Compound concentration 1000.0 nM
[16] = target: Sodium-dependent noradrenaline transporter (Homo sapiens) (UniProt P23975); test: norepinephrine transporter (h) Eurofins-Cerep binding assay; set-up: ligand concentration 1 nM; conditions: filed as antagonist, Compound concentration 10.0 uM
[17] = target: STE20-like serine/threonine-protein kinase (Homo sapiens) (UniProt Q9H2G2); conditions: Compound concentration 1000.0 nM
[18] = target: Mitogen-activated protein kinase kinase kinase kinase 5 (Homo sapiens) (UniProt Q9Y4K4); conditions: Compound concentration 1000.0 nM
[19] = target: Histamine H2 receptor (Homo sapiens) (UniProt P25021); conditions: Compound concentration 10.0 uM
[20] = target: Cytoplasmic tyrosine-protein kinase BMX (Homo sapiens) (UniProt P51813); conditions: Compound concentration 1000.0 nM
[21] = target: LIM domain kinase 1 (Homo sapiens) (UniProt P53667); conditions: Compound concentration 1000.0 nM
[22] = target: Muscarinic acetylcholine receptor M3 (Homo sapiens) (UniProt P20309); test: M3 (h) Eurofins-Cerep binding assay; set-up: ligand concentration 0.2 nM; conditions: filed as antagonist, Compound concentration 10.0 uM
[23] = target: Serine/threonine-protein kinase MRCK beta (Homo sapiens) (UniProt Q9Y5S2); conditions: Compound concentration 1000.0 nM
[24] = target: Phosphatidylinositol 4-kinase beta (Homo sapiens) (UniProt Q9UBF8); conditions: Compound concentration 1000.0 nM
[25] = system: Epidermal growth factor receptor (Homo sapiens), P00533 [UNDEFINED MUTATION]; conditions: Compound concentration 1000.0 nM; remark: listed apart in the source
[26] = target: Cyclin-dependent kinase 18 (Homo sapiens) (UniProt Q07002); conditions: Compound concentration 1000.0 nM
[27] = target: Dual specificity mitogen-activated protein kinase kinase 2 (Homo sapiens) (UniProt P36507); conditions: Compound concentration 1000.0 nM
[28] = target: Mitogen-activated protein kinase kinase kinase 11 (Homo sapiens) (UniProt Q16584); conditions: Compound concentration 1000.0 nM
[29] = target: Macrophage colony-stimulating factor 1 receptor (Homo sapiens) (UniProt P07333); conditions: Compound concentration 1000.0 nM
[30] = target: Serine/threonine-protein kinase WNK3 (Homo sapiens) (UniProt Q9BYP7); conditions: Compound concentration 1000.0 nM
[31] = target: Homeodomain-interacting protein kinase 3 (Homo sapiens) (UniProt Q9H422); conditions: Compound concentration 1000.0 nM
[32] = target: Ribosomal protein S6 kinase alpha-2 (Homo sapiens) (UniProt Q15349); conditions: Compound concentration 1000.0 nM
[33] = target: Cyclin-dependent kinase-like 1 (Homo sapiens) (UniProt Q00532); conditions: Compound concentration 1000.0 nM
[34] = target: G protein-coupled receptor kinase 3 (Homo sapiens) (UniProt P35626); conditions: Compound concentration 1000.0 nM
[35] = target: Interleukin-1 receptor-associated kinase 3 (Homo sapiens) (UniProt Q9Y616); conditions: Compound concentration 1000.0 nM

Epidermal growth factor receptor (Homo sapiens), P00533 [UNDEFINED MUTATION], sequence (P00533 whole entry, looked up, change not shown): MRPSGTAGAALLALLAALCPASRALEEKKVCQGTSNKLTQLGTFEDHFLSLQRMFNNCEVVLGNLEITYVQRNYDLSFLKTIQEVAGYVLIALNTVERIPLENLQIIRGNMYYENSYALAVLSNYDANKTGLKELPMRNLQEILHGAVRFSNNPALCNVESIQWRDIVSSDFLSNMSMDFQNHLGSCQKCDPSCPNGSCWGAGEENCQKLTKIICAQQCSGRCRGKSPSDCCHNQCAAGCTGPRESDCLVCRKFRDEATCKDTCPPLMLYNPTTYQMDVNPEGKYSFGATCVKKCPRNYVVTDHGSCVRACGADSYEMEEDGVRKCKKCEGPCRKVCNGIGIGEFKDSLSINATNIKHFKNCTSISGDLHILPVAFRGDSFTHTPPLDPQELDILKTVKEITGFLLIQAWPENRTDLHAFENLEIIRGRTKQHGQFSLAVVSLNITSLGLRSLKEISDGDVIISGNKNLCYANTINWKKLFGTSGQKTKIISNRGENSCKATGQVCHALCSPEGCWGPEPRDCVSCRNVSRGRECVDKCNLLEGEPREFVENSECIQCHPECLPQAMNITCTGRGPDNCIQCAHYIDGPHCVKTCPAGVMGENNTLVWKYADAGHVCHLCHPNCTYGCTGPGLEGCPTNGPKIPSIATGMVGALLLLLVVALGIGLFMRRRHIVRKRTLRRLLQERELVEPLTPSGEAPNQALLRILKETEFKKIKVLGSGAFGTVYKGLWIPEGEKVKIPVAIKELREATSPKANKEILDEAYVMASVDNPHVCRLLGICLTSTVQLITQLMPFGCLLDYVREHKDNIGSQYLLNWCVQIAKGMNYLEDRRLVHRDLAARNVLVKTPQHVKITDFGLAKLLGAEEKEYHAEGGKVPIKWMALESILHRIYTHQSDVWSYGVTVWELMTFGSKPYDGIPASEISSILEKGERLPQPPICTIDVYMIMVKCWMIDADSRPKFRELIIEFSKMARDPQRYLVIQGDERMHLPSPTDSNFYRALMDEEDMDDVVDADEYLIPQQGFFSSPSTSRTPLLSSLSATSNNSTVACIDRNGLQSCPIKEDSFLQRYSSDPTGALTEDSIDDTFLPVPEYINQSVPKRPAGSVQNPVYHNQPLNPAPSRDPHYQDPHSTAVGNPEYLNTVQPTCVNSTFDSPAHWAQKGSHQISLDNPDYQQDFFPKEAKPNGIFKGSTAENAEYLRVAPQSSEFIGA
Serine/threonine-protein kinase MRCK beta (Homo sapiens), sequence (Q9Y5S2 whole entry): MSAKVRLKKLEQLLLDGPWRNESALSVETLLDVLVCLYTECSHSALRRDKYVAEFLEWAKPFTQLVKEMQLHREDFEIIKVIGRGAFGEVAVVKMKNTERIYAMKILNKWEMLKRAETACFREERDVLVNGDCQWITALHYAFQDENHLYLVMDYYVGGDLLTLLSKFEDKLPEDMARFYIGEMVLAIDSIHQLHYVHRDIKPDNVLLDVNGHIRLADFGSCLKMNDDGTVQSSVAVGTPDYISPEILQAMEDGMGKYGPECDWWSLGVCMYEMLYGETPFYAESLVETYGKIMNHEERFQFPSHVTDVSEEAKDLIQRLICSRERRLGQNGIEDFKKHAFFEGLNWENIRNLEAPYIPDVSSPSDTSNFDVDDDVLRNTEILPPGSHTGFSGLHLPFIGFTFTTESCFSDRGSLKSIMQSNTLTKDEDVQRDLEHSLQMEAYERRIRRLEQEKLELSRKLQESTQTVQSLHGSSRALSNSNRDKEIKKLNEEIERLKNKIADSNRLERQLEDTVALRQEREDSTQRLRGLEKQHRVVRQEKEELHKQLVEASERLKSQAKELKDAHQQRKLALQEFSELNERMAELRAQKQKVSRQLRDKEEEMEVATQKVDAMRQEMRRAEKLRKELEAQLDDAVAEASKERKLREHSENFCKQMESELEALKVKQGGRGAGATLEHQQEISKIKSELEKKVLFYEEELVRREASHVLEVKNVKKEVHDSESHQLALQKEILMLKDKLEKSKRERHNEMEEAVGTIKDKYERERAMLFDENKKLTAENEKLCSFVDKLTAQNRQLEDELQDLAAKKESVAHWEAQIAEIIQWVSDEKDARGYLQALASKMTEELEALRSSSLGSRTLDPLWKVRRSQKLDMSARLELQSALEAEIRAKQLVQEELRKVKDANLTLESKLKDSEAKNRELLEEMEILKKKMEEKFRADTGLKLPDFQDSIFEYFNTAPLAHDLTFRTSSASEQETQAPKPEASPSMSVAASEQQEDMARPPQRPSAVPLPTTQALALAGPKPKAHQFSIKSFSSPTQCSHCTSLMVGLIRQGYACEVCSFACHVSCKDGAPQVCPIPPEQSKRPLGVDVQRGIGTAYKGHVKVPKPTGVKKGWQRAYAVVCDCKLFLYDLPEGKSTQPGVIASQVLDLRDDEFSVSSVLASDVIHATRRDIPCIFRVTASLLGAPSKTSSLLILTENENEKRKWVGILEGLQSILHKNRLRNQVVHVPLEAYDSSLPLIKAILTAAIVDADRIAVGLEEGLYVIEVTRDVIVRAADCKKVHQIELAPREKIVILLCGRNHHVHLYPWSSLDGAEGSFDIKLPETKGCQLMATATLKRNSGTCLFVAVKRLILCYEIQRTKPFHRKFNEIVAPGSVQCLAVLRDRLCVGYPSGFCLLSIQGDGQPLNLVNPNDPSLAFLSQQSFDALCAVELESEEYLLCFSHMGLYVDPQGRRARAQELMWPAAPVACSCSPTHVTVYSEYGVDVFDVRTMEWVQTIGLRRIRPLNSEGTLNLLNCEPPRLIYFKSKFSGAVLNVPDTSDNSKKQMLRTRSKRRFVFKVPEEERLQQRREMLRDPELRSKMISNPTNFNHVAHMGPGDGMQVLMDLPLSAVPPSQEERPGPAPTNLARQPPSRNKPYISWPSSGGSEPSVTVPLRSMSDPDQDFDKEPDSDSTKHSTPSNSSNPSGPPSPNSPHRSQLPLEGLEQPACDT
Serine/threonine-protein kinase WNK3 (Homo sapiens), sequence (Q9BYP7 whole entry): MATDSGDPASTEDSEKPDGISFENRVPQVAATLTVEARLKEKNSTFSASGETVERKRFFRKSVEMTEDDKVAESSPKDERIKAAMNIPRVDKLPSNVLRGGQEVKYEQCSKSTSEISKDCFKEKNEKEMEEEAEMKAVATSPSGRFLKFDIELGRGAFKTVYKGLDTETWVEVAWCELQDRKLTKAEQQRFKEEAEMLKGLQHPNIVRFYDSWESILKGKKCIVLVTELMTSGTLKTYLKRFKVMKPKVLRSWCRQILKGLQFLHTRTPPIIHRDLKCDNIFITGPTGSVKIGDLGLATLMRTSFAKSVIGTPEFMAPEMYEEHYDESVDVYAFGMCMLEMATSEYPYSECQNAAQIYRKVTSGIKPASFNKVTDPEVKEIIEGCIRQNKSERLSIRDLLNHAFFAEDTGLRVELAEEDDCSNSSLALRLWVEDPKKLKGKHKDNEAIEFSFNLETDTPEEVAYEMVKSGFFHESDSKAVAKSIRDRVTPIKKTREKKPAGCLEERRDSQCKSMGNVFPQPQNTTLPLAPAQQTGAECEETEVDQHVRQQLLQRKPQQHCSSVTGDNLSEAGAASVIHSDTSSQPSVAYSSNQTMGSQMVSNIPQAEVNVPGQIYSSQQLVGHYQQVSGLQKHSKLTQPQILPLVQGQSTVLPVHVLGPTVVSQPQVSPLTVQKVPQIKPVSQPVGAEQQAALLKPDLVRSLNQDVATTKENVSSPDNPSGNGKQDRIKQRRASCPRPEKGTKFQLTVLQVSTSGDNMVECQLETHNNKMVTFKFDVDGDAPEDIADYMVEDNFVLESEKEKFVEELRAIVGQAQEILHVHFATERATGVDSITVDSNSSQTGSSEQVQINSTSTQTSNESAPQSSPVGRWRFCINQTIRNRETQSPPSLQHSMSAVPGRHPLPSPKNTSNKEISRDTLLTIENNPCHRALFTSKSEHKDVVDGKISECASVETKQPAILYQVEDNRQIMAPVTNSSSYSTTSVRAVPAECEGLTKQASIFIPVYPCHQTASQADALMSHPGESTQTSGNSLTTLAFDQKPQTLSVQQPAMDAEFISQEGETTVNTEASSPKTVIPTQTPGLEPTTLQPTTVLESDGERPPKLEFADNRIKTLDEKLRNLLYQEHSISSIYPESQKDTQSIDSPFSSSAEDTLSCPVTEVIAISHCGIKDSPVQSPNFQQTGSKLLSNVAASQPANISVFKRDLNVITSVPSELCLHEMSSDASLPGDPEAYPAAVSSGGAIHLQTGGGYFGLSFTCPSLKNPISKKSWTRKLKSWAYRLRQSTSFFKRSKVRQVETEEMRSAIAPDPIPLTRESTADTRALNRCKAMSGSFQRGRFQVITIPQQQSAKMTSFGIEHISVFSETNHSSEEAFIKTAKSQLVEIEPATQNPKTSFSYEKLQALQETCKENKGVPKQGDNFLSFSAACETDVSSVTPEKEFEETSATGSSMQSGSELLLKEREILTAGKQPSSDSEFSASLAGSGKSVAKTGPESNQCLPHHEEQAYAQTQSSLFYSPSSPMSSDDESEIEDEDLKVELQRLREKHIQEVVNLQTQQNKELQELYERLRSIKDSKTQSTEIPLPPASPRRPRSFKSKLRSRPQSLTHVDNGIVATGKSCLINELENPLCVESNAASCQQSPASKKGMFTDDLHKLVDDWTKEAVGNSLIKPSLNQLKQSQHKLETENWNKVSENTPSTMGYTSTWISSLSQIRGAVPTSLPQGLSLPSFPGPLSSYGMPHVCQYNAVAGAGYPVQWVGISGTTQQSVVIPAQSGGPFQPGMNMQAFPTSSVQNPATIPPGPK
Testis-specific serine/threonine-protein kinase 3 (Homo sapiens), sequence (Q96PN8 whole entry): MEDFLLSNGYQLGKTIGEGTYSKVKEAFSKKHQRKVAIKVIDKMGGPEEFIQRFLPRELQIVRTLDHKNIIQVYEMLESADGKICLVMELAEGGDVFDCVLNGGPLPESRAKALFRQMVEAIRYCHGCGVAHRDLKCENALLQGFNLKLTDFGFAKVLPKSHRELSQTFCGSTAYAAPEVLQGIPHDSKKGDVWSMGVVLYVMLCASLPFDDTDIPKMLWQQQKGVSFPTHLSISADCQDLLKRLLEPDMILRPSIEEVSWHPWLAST

Compound | residual activity [1] | % Inhibition of Control Specific Binding (Mean n=2) [2] | residual activity [3] | residual activity [4] | residual activity [5] | residual activity [6] | residual activity [7] | residual activity [8] | residual activity [9] | residual activity [10] | residual activity [11] | % Inhibition of Control Specific Binding (Mean n=2) [12] | residual activity [13] | residual activity [14] | residual activity [15] | % Inhibition of Control Specific Binding (Mean n=2) [16] | residual activity [17] | residual activity [18] | inhibition [19] | residual activity [20] | other results
COc1ccc2c(c1)O[C@@H](c1ccc(OC)c(OC)c1)C[C@H]2NC(=O)C1(c2ccc3c(c2)OC(F)(F)O3)CC1 [A-1596586] | 100% | 6.1% | 57% | 100% | 100% | 87% | 87% | 100% | 76% | 100% | 100% | 63.9% | 100% | 100% | 100% | 23.5% | 100% | 100% | -6.08% | 91% | residual activity [21]: 100%; % Inhibition of Control Specific Binding (Mean n=2) [22]: -3.3%; residual activity [23]: 100%; residual activity [24]: 73%; residual activity [25]: 100%; residual activity [26]: 100%; residual activity [27]: 87%; residual activity [28]: 100%; residual activity [29]: 100%; residual activity [30]: 100%; residual activity [31]: 77%; residual activity [32]: 95%; residual activity [33]: 82%; residual activity [34]: 75%; residual activity [35]: 85%
COc1ccc2c(c1)O[C@H](c1ccc(OC)c(OC)c1)C[C@@H]2NC(=O)C1(c2ccc3c(c2)OC(F)(F)O3)CC1 [A-1596584] | 100% | -3.9% | 100% | 100% | 100% | 100% | 100% | 100% | 100% | 100% | 98% | 67.7% | 100% | 100% | 100% | 18.2% | 100% | 100% | -0.89% | 100% | residual activity [21]: 98%; % Inhibition of Control Specific Binding (Mean n=2) [22]: -12.8%; residual activity [23]: 100%; residual activity [24]: 81%; residual activity [25]: 100%; residual activity [26]: 100%; residual activity [27]: 100%; residual activity [28]: 100%; residual activity [29]: 100%; residual activity [30]: 100%; residual activity [31]: 91%; residual activity [32]: 95%; residual activity [33]: 83%; residual activity [34]: 100%; residual activity [35]: 86%
